The values below come from PubChem BioAssay AID463074 (Broad Institute, 2010).

Active and inactive are the calls of the source.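 How the source made its calls: active means AC50 no more than tenfold above the top dose tested, or full inhibition at every dose with a flat fit (cut at about 19 µM in these data); inconclusive means flat curve fit with inhibition between 30% and 70%, or poor fit; inactive means AC50 more than tenfold above the top dose tested.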

For the test, the system named is HMLE_sh_eGFP viability, CellTiter-Glo luminescence, 72 h. As to the kind of experiment: viability loss of HMLE_sh_eGFP cells – cell-based, luminescence, counter-screen for HMLE_sh_ECad selective toxicity project, dose response (AID 463074;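 further: counterscreen control line to flag general toxicity for the HMLE_sh_ECad screen; potency for loss of viability as luminescence drops below DMSO wells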). (Counterscreens check selectivity or assay interference.)
On to `Cn1c(N)c(C(=O)COC(=O)c2ccccc2C(=O)c2ccc(Cl)c([N+](=O)[O-])c2)c(=O)n(C)c1=O`, for which the AC50 (commonly the concentration at which the activity in the assay is half-maximal) is 3.61 µM.
Regarding `CC1=C(C(=O)OC2CCCCC2)C(c2ccc(C)o2)C2=C(CC(C)(C)CC2=O)N1` (stereo not given), the AC50 is 12.9 µM.
As for `CCC(C)n1ncn(-c2ccc(N3CCN(c4ccc(O)cc4)CC3)cc2)c1=O` (stereo not given), the figure is 1.47 µM; as for `CCc1ccc2c(c1)C1(C(=O)N2)N2CCCC2C(C(=O)c2ccc3ccccc3c2)C12C(=O)Nc1ccccc12` (stereo not given), 3.69 µM.
For the molecule `COc1cc(Br)cc(/C=C/c2ccc3cccc(O)c3n2)c1O`, the AC50 is 3.91 µM.
On to `O=C1c2ccccc2NC(c2ccc(-c3ccc(Br)cc3)o2)N1O` (stereo not given), for which the concentration at half-maximal activity (AC50) is 5.06 µM.
Turning to `COc1ccc(-c2nn(-c3ccccc3)cc2/C=C2/SC(=S)N(CCC(=O)O)C2=O)c(C)c1`, the AC50 was 8.18 µM.
On to `COc1ccc(/C=C/C(=O)c2ccncc2)c2ccccc12`, for which the AC50 was 10 µM.
In the case of `OC1CCN(c2cc(-c3ccccc3)nc3cc(-c4ccc(F)cc4)nn23)CC1` it was 7.31 µM; in that of `COC(=O)C1=C(C)N(Cc2ccccc2)C(=NCc2ccccc2)N[C@H]1c1cccc(C(F)(F)F)c1`, 3.68 µM.
In the case of `S=c1[nH]nc(-c2ccccc2)n1/N=C/c1ccc(-c2ccccc2Cl)o1` it was 5.93 µM; in that of `CC(C)OC(=O)c1c2c(n3ccccc13)C(=O)c1ccccc1C2=O`, > 19.5 µM (inactive); in that of `Cc1ccc(-c2cc(NC(=O)CCl)n(-c3ccccc3)n2)cc1`, 7.29 µM.
Consider `CN1CCN(c2ccccc2NC(=O)c2ccc(-c3ccc(Cl)cc3Cl)o2)CC1`, for which the AC50 is 6.57 µM.
In the case of `COc1ccc(NS(=O)(=O)c2cc(NC(=O)c3ccc(=O)[nH]c3)ccc2N2CCCC2)cc1` it was 1.1 µM; in that of `O=Nc1c(O)n(Cc2ccc(Cl)c(Cl)c2)c2ccccc12`, 6.85 µM; in that of `CCCCCCCCCCCCN1[C@@H](CC(C)=O)c2cc(F)ccc2S1(=O)=O`, 10 µM.
As for `Cc1ccc(NC(=O)/C=C/c2ccc3c(c2)OCO3)nc1`, the figure is 1.16 µM; as for `CCN(CC)S(=O)(=O)c1cccc(C(=O)N/N=C/c2cccc(O)c2O)c1`, 7.97 µM.
Turning to `CC(=O)N1c2ccc(Cl)cc2C2C=CCC2C1c1cccc2ccccc12` (stereo not given), the AC50 is 5.36 µM.
Consider `O=C(Nc1ccc(Nc2ccccc2)cc1)c1cc([N+](=O)[O-])ccc1Cl`, for which the AC50 is 10.6 µM.
On to `O=C(C1CCCN(S(=O)(=O)c2ccc([N+](=O)[O-])cc2)C1)N1CCCCC1` (stereo not given), for which the AC50 was > 19.5 µM (inactive).
With `COc1ccc(NS(=O)(=O)c2ccc3nc(COc4cccc5ccccc45)[nH]c3c2)cc1`, the concentration at half-maximal activity (AC50) is 4.75 µM.
In the case of `CCN(Cc1ccccc1)c1ccc(/C=N/NC(=S)NC(C)C)cc1` it was 4.6 µM; in that of `Cc1cc(-c2csc3nc[nH]c(=S)c23)cc(C)c1C`, 18.8 µM.
In the case of `O=S(=O)(NC1CC(NS(=O)(=O)OCC(Cl)(Cl)Cl)C2CCCCC12)OCC(Cl)(Cl)Cl` (stereo not given) it was 1.47 µM; in that of `CC(C)Cc1nc2oc3c(Cl)ncnc3c2c2c1CCC2`, 3.72 µM.
As for `O=C(COc1ccc(-c2ccccc2)cc1)N/N=C/c1cc(O)ccc1Br`, the figure is 5.68 µM.
With `CCCCn1c(SCC(N)=O)nc2sc3c(c2c1=O)CCC3`, the AC50 was > 19.5 µM (inactive).
Regarding `CCCCn1c(=O)c(C(=O)NCc2ccccc2)c(O)c2ccccc21`, the concentration at half-maximal activity (AC50) is 8.36 µM.
Regarding `O=[N+]([O-])c1ccc(CP(=O)(c2ccccc2)c2ccccc2)cc1`, the AC50 was > 19.5 µM (inactive).
Turning to `COc1ccc(/C=C/C(=O)c2ccc([N+](=O)[O-])o2)cc1`, the AC50 was 2.87 µM.
On to `CN(C)c1ccc(-n2cccc2/C=C/[N+](=O)[O-])cc1`, for which the AC50 was 3.63 µM.
On to `O=C(NC1CONC1=O)OCC(Cl)(Cl)Cl` (stereo not given), for which the AC50 was > 19.5 µM (inactive).
Regarding `CC[C@H](C)[C@H]1O[C@]2(CC[C@@H]1C)C[C@@H]1C[C@@H](CC=C(C)[C@@H](O[C@H]3C[C@H](OC)[C@@H](O[C@H]4C[C@H](OC)[C@@H](O)[C@H](C)O4)[C@H](C)O3)[C@@H](C)C=CC=C3CO[C@@H]4[C@H](O)C(C)=C[C@@H](C(=O)O1)[C@]34O)O2`, the AC50 is 1.78 µM.
In the case of `CC(=O)Oc1ccc(-c2csc(Nc3cccc(C)n3)n2)cc1` it was 8.79 µM; in that of `COc1c(Cl)cc(Cl)cc1/C=C/C(=O)c1ccc(NC(=O)c2cccs2)cc1`, 1.31 µM.
In the case of `CCC1CSC(Nc2ccc(C(=O)/C=C/c3cccc(C)c3)cc2)=N1` (stereo not given), the concentration at half-maximal activity (AC50) is 5.56 µM.
With `CCSc1ncc(/C=N/Nc2ccc(Cl)cc2)n1C`, the AC50 was 6.75 µM.
Consider `CCc1nc(N2CCC(C)CC2)c2oc3ccccc3c2n1`, for which the AC50 was 7.06 µM.
For `COc1ccc(NC(=O)c2cc(-c3ccccc3OC)on2)cc1`, the AC50 was 0.983 µM.
As for `COc1cc(SC#N)ccc1N=Cc1c(C)[nH]n(-c2ccc(C)cc2)c1=O`, the figure is 5.99 µM; as for `NC(=O)CC(NC(=O)Cc1cccc2ccccc12)c1ccc(NCc2ccc(F)cc2)c([N+](=O)[O-])c1` (stereo not given), 19.8 µM; as for `COc1ccc(-c2sc3ccc(OC)cc3c2C#CCCO)cc1`, 7.27 µM.
As for `Cc1cc2nnc(SCC(=O)NCc3ccco3)n2c2ccccc12`, the figure is 4.5 µM; as for `O=C1c2c(Br)c(Br)c(Br)c(Br)c2C(=O)N1c1ccccn1`, 3.65 µM; as for `Cc1ccc(NC(=O)c2ccc(Cl)c(N3C(=O)C=CC3=O)c2)cc1`, 8.19 µM.
As for `CCN(c1ccccc1)S(=O)(=O)c1cccc(C(=O)NCC(c2cccs2)N2CCOCC2)c1` (stereo not given), the figure is > 19.5 µM (inactive); as for `CCCCSc1nc(C)cc(SCC(=O)N/N=C/c2cccc(OC)c2O)n1`, 11.8 µM.
Regarding `CC(=O)Nc1ccc(OCC(O)CN2CCN(c3ccc(C)c(Cl)c3)CC2)cc1` (stereo not given), the AC50 is 8.97 µM.
In the case of `Cc1cccc(-n2c(/C=C/c3ccc([N+](=O)[O-])o3)nc3ccccc3c2=O)c1` it was 1.99 µM; in that of `Cc1cccc(-c2cc3nc(C)cc(N4CC(C)CC(C)C4)n3n2)c1` (stereo not given), 6.87 µM; in that of `CCCSc1nsc(NC(=O)C(c2ccccc2)c2ccccc2)n1`, 3.64 µM.
As for `CCCN1CCc2c(sc(NC(=O)c3ccc(S(=O)(=O)N(C)c4ccccc4)cc3)c2C(=O)NC)C1`, the figure is 5.34 µM; as for `CCCc1nc2ccccc2c(C(=O)OCC(=O)Nc2ccc(S(=O)(=O)N3CCOCC3)cc2)c1CC`, 5.86 µM.
Take `CCCn1nc([N+](=O)[O-])c(C(C#N)c2nc3ccccc3o2)c(Cl)c1=O` (stereo not given): the AC50 is 5.81 µM.
`OC(COCC(F)(F)C(F)(F)C(F)(F)C(F)F)Cn1c2ccccc2c2ccccc21` (stereo not given): the AC50 is 6.63 µM.
In the case of `COC(=O)C1=C(C)N(Cc2ccccc2)C(=NCc2cccc(Cl)c2)N[C@H]1c1ccccc1` it was 7.17 µM; in that of `CN(CC(=O)Nc1cccc(F)c1)C(=O)c1cn(-c2ccccc2)nc1-c1ccc(Cl)cc1`, 3.85 µM; in that of `CCOc1ccc(/C=N/NC(=O)COc2ccccc2-c2ccccc2)cc1`, 6.53 µM.
On to `COc1cccc(-c2sc3ccccc3c2-c2ccc(OCCN3CCOCC3)cc2)c1`, for which the AC50 is 4.3 µM.
On to `COc1cc2sc(-c3ccccc3OC)c(-c3ccc(OCCN4CCCCC4)cc3)c2cc1OC`, for which the AC50 was 4.24 µM.
In the case of `COc1cc(SC#N)ccc1N=Cc1c(C)[nH]n(-c2ccc(C)c(C)c2)c1=O` it was 4.52 µM; in that of `O=C1C2C(c3ccccc3)CC=CC2[C@H](c2ccc(C(F)(F)F)cc2)N1Cc1ccccc1` (stereo not given in full), 5.89 µM.
`O=c1cc(N2CCCCC2)c(-c2ccccc2)nn1Cc1c(Cl)cccc1Cl`: the AC50 is 5.72 µM.
For `Cc1nn(Cc2c(Cl)cccc2Cl)c(C)c1NC(=O)c1cn(-c2ccccc2)nc1-c1ccccc1`, the AC50 was 1.19 µM.
In the case of `Cc1ccc(-c2cc(-c3ccccc3)nc(NN)n2)cc1` it was 4.19 µM; in that of `COc1ccccc1-c1oc2ccccc2c1C#CC1(N)CCCCC1`, 6.39 µM; in that of `C[C@@H]1CC[C@]2(C(=O)O)CC[C@]3(C)C(=CCC4[C@]56CC[C@@](O)(OC5)C(C)(C)C6CC[C@]43C)C2[C@H]1C` (stereo not given in full), 6.19 µM.
In the case of `C=C(C)C1Cc2c(C)nn(-c3cccc4ccccc34)c2C1` (stereo not given) it was 7.55 µM.
In the case of `CCC(C)n1c(O)c(/C=N/Nc2ccccc2)c(=O)[nH]c1=S` (stereo not given) it was 3.58 µM.
For `CC(C)(CN1CCN(Cc2ccccc2)CC1)NS(=O)(=O)c1ccccc1`, the AC50 is 8.78 µM.
In the case of `O=C(NCC(c1cccs1)N1CCOCC1)c1ccc(Cl)s1` (stereo not given) it was 1.76 µM.
As for `S=c1[nH]nc(-c2cc(-c3ccccc3)n[nH]2)n1/N=C/C(Br)=C/c1ccccc1`, the figure is 1.2 µM; as for `Oc1ccc(/C=N/Nc2ccc(C(F)(F)F)cn2)c(O)c1`, 6.58 µM.
As for `c1ccc(CNc2nc(N3CCN(Cc4ccccc4)CC3)nc3ccccc23)cc1`, the figure is 3.91 µM; as for `COc1ccc(NC(=O)c2ccc(COc3ccccc3Br)o2)c(OC)c1`, 3.67 µM; as for `O=c1cc(N2CCCCC2)c(-c2ccccc2)nn1Cc1cccc(F)c1`, 5.13 µM.
With `Cn1c(=O)n(Cc2ccc(F)cc2)c(=O)c2c1nc1n2CCCN1C1CCCCC1`, the AC50 is 4.43 µM.
As for `O=C(N/N=C/c1cccc(O)c1)c1ccc(COc2ccccc2Br)cc1`, the AC50 was 6.42 µM.
In the case of `O=C1CC(N(CCc2ccccc2)C(=S)Nc2cc(Cl)ccc2Cl)C(=O)N1c1c(Cl)cccc1Cl` (stereo not given) it was > 19.5 µM (inactive).
As to `CCCCN(C)c1nc(-c2ccco2)c2c(c1C#N)CC(C)(C)OC2`, the AC50 is 11.7 µM.
For `Cc1nc(NCc2ccco2)c2c(C)c(C)sc2n1`, the AC50 is 5.22 µM.
As for `Cc1cc(NCCCn2ccnc2)n2nc(C)c(-c3ccc(Cl)cc3)c2n1`, the figure is 6.46 µM; as for `COc1ccc(/C=C/C(=O)c2c(O)n(CCC3=CCCCC3)c(=O)[nH]c2=O)cc1`, 3.33 µM.
As to `CCN(CC)S(=O)(=O)c1cccc(NC(=O)Nc2cccc(C(F)(F)F)c2)c1`, the AC50 was 3.56 µM.
As for `CCCc1cc(=O)[nH]c(SCC(=O)Nc2sc(C(N)=O)c(C)c2C(=O)OCCOC)n1`, the figure is 4.25 µM.
As for `O=C1/C(=C\c2cccc(O)c2O)SC(=S)N1Cc1ccccc1`, the figure is 4.85 µM.
As to `Cc1ccc2sc(N(CCCN(C)C)C(=O)c3ccc(S(=O)(=O)N4CCCCCC4)cc3)nc2c1C`, the half-maximal activity concentration (AC50) is 7.04 µM.
As for `COCCCn1c(SCc2cccc(C(F)(F)F)c2)nc2cc(OC)c(OC)cc2c1=N`, the figure is 4.75 µM.
